The subject of data set [1] is WJMSC-derived cardiomyocytes (WJCM). The experiment in a line: Intracellular ROS assay in WJCM. Format: cell-based, human. To be noted: 24 h; analogues at Vero IC50 concentration. The method, then:
(§1) Generation of ROS was detected using Fluorometric intracellular ROS kit (Sigma Aldrich, MO, USA) as per manufacturer’s protocol. Fluorescence was measured at excitation and emission of 650 nm and 675 nm respectively via multimode plate reader[50],[51].

Data set [2] concerns cardiomyocytes (WJCM and H9C2 cells). The experiment in a line: Cardiotoxicity across parameters as summarised in the discussion (WJCM and H9C2 cells). Format: cell-based, human and rat. The text has this:
We investigated the effects of 3-hydroxyflavone (QMJ-2, QMJ-5, and QMJ-6) and cinnamyl sulfonamide-hydroxamate (NMJ-1, NMJ-2, NMJ-3) in WJCM and H9C2 cells using the concentrations reported for non-cancerous Vero cells. The prerequisite for any synthesized drug molecules is that they should be nontoxic to cardiac cells.

The subject of data set [3] is H9C2 cells. As to the kind of experiment: Fura-2AM intracellular calcium assay in H9C2 cells. Type of data set: cell-based, rat. To be noted: 24 h; analogues at Vero IC50 concentration. Here is the method:
(§2) Intracellular calcium flux was measured using the fluorescent radiometric Ca^2+ indicator, Fura-2 acetoxymethyl ester (Fura-2, AM; Invitrogen, Carlsbad, USA). Briefly, after 24 h of treatment, Fura-2AM (1 μmol/L) was added to cells and incubated for 30 min at 37 °C. The intracellular calcium flux was measured at excitation of 340 nm and 380 nm and emission of 510 nm using a multimode plate reader.
Background: Calcium flux is commonly read through the fluorescence of an indicator in the cells.

In data set [4] the test system is WJMSC-derived cardiomyocytes (WJCM). As to the kind of experiment: MTT and CCK-8 cell viability assays in WJCM. Format: cell-based, human. Conditions: 24 h; analogues at Vero IC50 concentration; Dox 1 µM. Here is the method: (§3) Similarly, the toxicity of these compounds in terms of the viability of cells was estimated by using the MTT assay and cell counting kit-8 (CCK-8) assay. For MTT assay, after 24 h of treatments, MTT (5 mg/ml of PBS; HiMedia, India) was added, and cells were incubated for 2 h at 37 °C. The formazan crystals that were formed after the incubation were dissolved using dimethyl sulfoxide (DMSO). For the CCK-8 assay, 10 μL of CCK-8 solution (Boster Biological Technology, Pleasanton, CA, USA) was added to each well and incubated for 2 h at 37 °C. The absorbance for MTT and CCK-8 assay was measured at 570 nm and 450 nm respectively using the EnSight™ Multimode plate reader (Perkin Elmer, MA, USA)[49],[50].

Data set [5] relates to cardiac markers (NKX2.5, GATA4, Troponin I, Troponin T, MHCα) in WJCM. As to the kind of experiment: qRT-PCR gene expression of cardiac-specific markers in WJCM. Conditions: qRT-PCR; analogues at Vero IC50 concentration. The method, then: Differentiation of WJMSCs was done using a proprietary combination of DNMT and HDAC inhibitors in KO-DMEM/F-12 containing 10% FBS for 48 h. Induction media was replaced with culture media i.e. KO-DMEM/F-12 with 1X GlutaMAX and, 10% FBS after 48 h for 7 days[23].
WJMSC-derived cardiomyocytes (WJCM) and H9C2 were treated with NMJ and QMJ analogues for 24 h. […] To illustrate the toxicity specific to cardiac cells and not a general cytotoxicity, WJMSCs were treated with positive cardiotoxic drugs.
Total ribonucleic acid (RNA) was isolated using RNAiso Plus (TaKaRa, Shiga, Japan) followed by cDNA conversion using PrimeScript™ 1st strand cDNA synthesis kit (TaKaRa, Shiga, Japan). Quantitative reverse transcriptase-polymerase chain reaction (qRT-PCR) was performed by using TB Green™ Premix Ex Taq™ II (Tli RNase H Plus; TaKaRa, Shiga, Japan) for cardiac markers in a QuantStudio™ 5 real-time PCR Systems (Applied Biosystems, USA). All the primers were purchased from Sigma Aldrich, Bangalore, India (Table 1). The relative gene expression was calculated using 2^-∆∆CT and GAPDH, a housekeeping gene was used as endogenous control[52],[53].
On the technique in general: Quantitative PCR measures a nucleic acid by following its amplification.

Data set [6] deals with WJMSC-derived cardiomyocytes (WJCM). The experiment in a line: LDH release assay in WJCM. Format: cell-based, human. Conditions: 24 h; analogues at Vero IC50 concentration. The method, then: (§4) The experiment was performed as per the manufacturer’s protocol. Absorbance was taken at 490 nm and 680 nm (background signal) using multimode plate reader. LDH activity was calculated by subtracting absorbance taken at 680 nm from 490 nm.
(In general: LDH leaks from cells whose membrane has failed.)

For data set [7] the test system is unchanged. The experiment in a line: TMRE mitochondrial membrane potential assay in WJCM. Type of data set: cell-based, human. Conditions: 24 h; analogues at Vero IC50 concentration. Here is the method:
(§5) Mitochondrial membrane potential of the cells after drug treatment was detected using tetramethylrhodamine ethyl ester dye (TMRE; Molecular Probes, CA, USA). The cells were incubated with 0.3 µM TMRE dye and incubated at 37 °C for 30 min in dark. Fluorescence intensity of TMRE was measured at excitation and emission of 549 nm and 574 nm respectively via a multimode plate reader.

Data set [8] shares this test system. As to the kind of experiment: Fura-2AM intracellular calcium assay in WJCM. Type of data set: cell-based, human. Conditions: 24 h; analogues at Vero IC50 concentration. Here is the method: as §2
The test system of data set [9] is Vero, a non-cancerous cell line. The arrangement: method as in PMID 25824412, PMID 30687400. Conditions: read-out: IC50 in Vero cells; cited from earlier work.
Data set [10] concerns WJMSC-derived cardiomyocytes (WJCM). As to the kind of experiment: Griess assay (NO release) in WJCM. Format: cell-based, human. To be noted: 24 h; NMJ-3 at 15.1 µM. The method, then:
Nitric oxide (NO) release was estimated using the Griess assay. Briefly, after 24 h of drug treatment, Griess reagent (Sigma Aldrich, MO, USA) was added to cells in equal volume and incubated for 30 min in the dark, and absorbance was taken at 540 nm via multimode plate reader.

Data set [11] deals with H9C2 cells. As to the kind of experiment: TMRE mitochondrial membrane potential assay in H9C2 cells. Format: cell-based, rat. Conditions: 24 h; analogues at Vero IC50 concentration. Here is the method: as §5
For data set [12], the system named is H9C2 cells. The experiment in a line: MTT cell viability assay in H9C2 cells. Format: cell-based, rat. Conditions: 24 h, analogues at Vero IC50 concentration. The method, then:
as §3

The subject of data set [13] is H9C2 cells. As to the kind of experiment: Intracellular ROS assay in H9C2 cells. To be noted: 24 h; analogues at Vero IC50 concentration. Type of data set: cell-based, rat. Here is the method: as §1
For data set [14], the system named is H9C2 cells. As to the kind of experiment: LDH release assay in H9C2 cells. Type of data set: cell-based, rat. Conditions: 24 h; analogues at Vero IC50 concentration. The method, then: as §4
Where [15] appears, read: discussion summary, cell model not specified.

With `O=C(/C=C/c1ccc(S(=O)(=O)NCc2ccco2)cc1)NO` [NMJ-3], in data set [1], the “ROS activity in WJCM” value is “lowered ROS activity”. Moreover, the “overall cardiotoxicity across the parameters analyzed” value in data set [2] (analogues at Vero IC50 concentration, 24 h) was “do not display significant cardiotoxicity”. In data set [2] (setting [15]), the “active mitochondria status in treated cardiomyocytes” value is listed as “remains unaffected”; the “cytotoxic effect against cardiomyocytes by MTT, CCK-8 and LDH assay” value is listed as “no cytotoxic effect”; the “intracellular calcium level in treated cardiomyocytes” value is “remained low”. Moreover, the “intracellular Ca2+ accumulation in H9C2 cells (Fura-2AM)” value in [3] is “decrease in Ca^2+ accumulation”. Further, the “toxicity / cell viability in WJCM (MTT, CCK-8), result in words” value in [4] is “less toxic”. Also, in [5], the “GATA4 gene expression in WJCM” value was “marked upregulation”; the “MHCα gene expression in WJCM” value is “marked upregulation”; the “Troponin I gene expression in WJCM” value is reported as “marked upregulation”; the “Troponin T gene expression in WJCM, increase” value is recorded as 8–10 fold. Also, the “LDH release in WJCM” value in [6] is reported as “no to little change”. Besides, the “mitochondrial membrane potential in WJCM (TMRE)” value in [7] is “increased mitochondrial membrane potential”. Further, the “intracellular Ca2+ accumulation in WJCM (Fura-2AM)” value in data set [8] is “decrease in Ca^2+ accumulation”. The IC50 in [9] was 15.1 µM. For the same molecule, the “decrease of NO level in WJCM (Griess)” value in data set [10] is given as 12%. Moreover, the “mitochondrial membrane potential in H9C2 cells (TMRE)” value in data set [11] is given as “increased mitochondrial membrane potential”. Also, in data set [12], the “viability of H9C2 cells (MTT), result in words” value was “increase in viability”. The “decrease in viability of H9C2 cells (MTT)” value in data set [12] (Dox 1 µM) is given as 10–20%. Also, the “ROS activity in H9C2 cells” value in data set [13] is given as “lowered ROS activity”. Besides, the “LDH release in H9C2 cells” value in [14] was “no to little change”.

As usually defined, the IC50 is the point on the concentration scale where inhibition reaches its midpoint.

The values are drawn from publication PMC9734143, “An efficient human stem cells derived cardiotoxicity testing platform for testing oncotherapeutic analogues of quercetin and cinnamic acid” (Scientific Reports, 2022).
